In the SangsterLogP compilation:

test: method code SF-GLC, from DOI: 10.1002/qsar.19850040403; conditions: pH 13.0

logD	Compound
2.68	CCCN(CC)CCC
0.24	NCC(F)(F)F
0.7	CCN(C)C
1.06	CN(C)CC(F)(F)F
1.88	CCN(CC)CC(F)(F)F
2.79	CCCN(CCC)CCC
1.91	CCCNC(C)CC (centres undefined)
2.38	CCCN(CC)CC(F)(F)F
1.33	C=CCNCCC
2.18	CCCN(C)CC(F)(F)F
0.55	CNCC(F)(F)F

The remaining lines, values behind:

Compound	logD
CC(C)N	0.26
C1CN2CCC1CC2	1.38
C=CCNCC	0.81
CCNCC(F)(F)F	0.74
C1CCNC1	0.46
CCNC(C)C	0.93
CCCCCN	1.49
CCCNCC(C)C	2.07
CCNC	0.15
CCCCCCCN	2.57
CCCCNCCC	2.12
CCCCC(CC)CN (centres undefined)	2.82
CC(C)CN	0.73
